Measurements published in US20100022559A1, “BISOXIMES AS FUNGICIDES” (BAYER CROPSCIENCE AG, priority 2006, published 2010).

Experiment: logP determination by HPLC on a reversed-phase column (C 18), EEC Directive 79/831 Annex V.A8
Format: physicochemical
Conditions: method marked [a] in Table 1
Experimental: The stated logP values were determined in accordance with EEC Directive 79/831 Annex V.A8 by HPLC (high performance liquid chromatography) on a reversed-phase column (C 18). Temperature: 43° C.

logP	SMILES
6.04^[a]	CC(=NOCC(C)(C)CON=C(C)c1ccc2c(n1)CCCCC2)c1ccc2c(n1)CCCCC2 [Compound 592]
3.80^[a]	Cc1cccc(C(=NOCC2(CON=C(c3cccc(C)n3)C3CC3)CC(c3ccccc3)=NO2)C2CC2)n1 (stereo not shown) [compound 650]
2.95^[a]	CCC1=NOC(CON=C(c2cccc(C)n2)C2CC2)(CON=C(c2cccc(C)n2)C2CC2)C1 (stereo not shown) [compound 652]

Same assay, conditions: method marked [b] in Table 1

logP	SMILES
2.80^[b]	Cc1cccc(C=NOCc2ccc(CON=Cc3cccc(C)n3)cc2)n1 [compound 735]
3.23^[b]	C=C(CON=C(C)c1ccc[nH]1)CON=C(C)c1ccc[nH]1 [compound 564]
2.18^[b]	CC(=NOCC1(CON=C(C)c2cc(C)cc(C)n2)CC(C(C)C)=NO1)c1cc(C)cc(C)n1 (stereo not shown) [compound 638]
6.58^[b]	CCCC(=NOCC1(CON=C(CCC)c2cccc(C)n2)CC(c2ccc(Cl)cc2)=NO1)c1cccc(C)n1 (stereo not shown) [compound 622]
3.76^[b]	N/C(=N\OCc1cccc(CO/N=C(\N)c2nc(C3CC3)cc(C3CC3)n2)c1)c1nc(C2CC2)cc(C2CC2)n1 [compound 716]
3.76^[b]	CC(=NOCc1ccc(CON=C(C)c2ccccn2)cc1)c1ccccn1 [compound 734]
3.46^[b] (isomer B)	C=C(CON=C(C)c1cccc(C)n1)CON=C(c1cccc(C)n1)C1CC1 (single isomer, unassigned) [compound 537]
3.00^b] (Isomer A)	C=C(CON=C(C)c1cccc(C)n1)CON=C(C)c1sc(C)nc1C (single isomer, unassigned) [compound 544]
2.87^b]	CCOC(CON=C(C)c1cccc(C)n1)CON=C(C)c1cccc(C)n1 (stereo not shown) [Compound 586]
3.28^[b]	CC(=NOCC1(CON=C(C)c2cccc(C)n2)CC(C(C)C)=NO1)c1cccc(C)n1 (stereo not shown) [compound 597]
2.16^[b] (isomer B)	C=C(CON=Cc1cccc(C)n1)CON=Cc1cccc(C)n1 (single isomer, unassigned) [compound 662]
2.96^[b]	N/C(=N\OCc1cccc(CO/N=C(\N)c2ncc(F)cc2F)c1)c1ncc(F)cc1F [compound 714]
5.08^[b]	CCCC(=NOCC1(CON=C(CCC)c2cccc(C)n2)CC(CC)=NO1)c1cccc(C)n1 (stereo not shown) [compound 617]

SMILES	logP
CC(=NOC(=O)N(C)C(=O)ON=C(C)c1cc(C)cc(C)n1)c1cc(C)cc(C)n1 [compound 676]	2.21^[b]
CC(=NOC(=O)N(C)C(=O)ON=C(C)c1ccc(C)c(C)n1)c1ccc(C)c(C)n1 [compound 674]	2.79^[b]

Same assay, conditions: method marked [c] in Table 1

logP	SMILES
3.20^[c]	C=C(CON=C(C)c1ccc[nH]1)CON=C(C)c1ccc[nH]1 [compound 564]
4.76^[c]	CCOC(CON=C(C)c1cccc(C)n1)CON=C(C)c1cccc(C)n1 (stereo not shown) [Compound 586]

Same assay, conditions: method marker [a] (footnote not shown); isomer A / isomer B / isomer mixture as noted in the cell

logP	SMILES
5.99^[a]	CC(=NOCCCON=C(C)c1cccc(Br)n1)c1cccc(Br)n1 [compound 80]
7.36^[a]	CC(=NOCCCON=C(C)c1cccc(CC(C)C)n1)c1cccc(CC(C)C)n1 [Compound 134]
4.89^[a] (isomer A)	Cc1cccnc1C(Cc1ccccc1)=NOCCCON=C(Cc1ccccc1)c1ncccc1C (single isomer, unassigned) [Compound 97]
1.50^[a]	CC(=NOCC(O)CON=C(C)c1ccccn1)c1ccccn1 (stereo not shown) [compound 3]
5.78^[a] (isomer A)	Cc1cccnc1C(CC(C)C)=NOCC(C)CON=C(CC(C)C)c1ncccc1C (single isomer, unassigned) [compound 110]

Same assay, conditions: method marker [b]; isomer A / isomer B / isomer mixture as noted in the cell

logP	SMILES
5.89^[b]	C=C(CON=C(C)c1cccc(OC)n1)CON=C(C)c1cccc(OC)n1 [compound 145]
1.80^[b]	C=C(CO/N=C(\N)c1nc(C)cc(C)n1)CO/N=C(\N)c1nc(C)cc(C)n1 [compound 8]
3.33^[b]	C=C(CON=C(C)c1cccc(C)n1)CON=C(C)c1cccc(C)n1 [Compound 9]
1.81^[b]	Cc1cc(C)nc(/C(N)=N/OCC(C)CO/N=C(\N)c2nc(C)cc(C)n2)n1 (stereo not shown) [Compound 10]
6.71^[b]	CC(=NOCC(C)CON=C(C)c1nc2ccccc2s1)c1nc2ccccc2s1 (stereo not shown) [Compound 213]
2.75^[b]	C=C(CON=C(C)c1cccc(C)n1)CON=C(N)c1cccc(C)n1 [Compound 23]
2.39^[b]	CC(=NOCON=C(C)c1cccc(C)n1)c1cccc(C)n1 [compound 7]
3.39^[b] (isomer B)	C=C(CON=C(C)c1cccc(C)n1)CON=C(C)c1ncccc1Cl (single isomer, unassigned) [compound 139]
2.21^[b]	CC(=NOCCON=C(C)c1ccccn1)c1ccccn1 [compound 30]
1.23^b]	CC(=NOCCCON=C(C)c1ccncc1)c1ccncc1 [compound 29]
6.18^[b]	C=C(CON=C(C)c1ccc(C(F)(F)F)cn1)CON=C(C)c1ccc(C(F)(F)F)cn1 [Compound 61]
3.26^[b]	CON=C(CON=C(C)c1cccc(C)n1)CON=C(C)c1cccc(C)n1 [compound 113]
6.02^[b]	C=C(CON=C(C)c1cccc(C(F)(F)F)n1)CON=C(C)c1cccc(C(F)(F)F)n1 [compound 176]
1.35^[b]	COCc1nc(/C(N)=N/OCO/N=C(\N)c2nc(COC)c(C)c(COC)n2)nc(COC)c1C [compound 40]
3.09^[b]	CC(=NOCC1OC(C)(C)OC1CON=C(C)c1cccc(C)n1)c1cccc(C)n1 (stereo not shown) [compound 215]

Same assay, conditions: reversed-phase HPLC column (C 18); HCO2H; HPLC reversed-phase column (C 18), 43° C.; read-out: logP (HCO2H)

chromatographic logP	SMILES
1.81	Cc1cc(C)nc(/C(N)=N/OCC(C)CO/N=C(\N)c2nc(C)cc(C)n2)n1 (stereo not shown) [drawing 85, N′,N″-[(2-methylpropane-1,3-diyl)bis(oxy)]bis(4,6-dimethylpyrimidine-2-carboximidamide)]

Same assay, conditions: value marked [a]

logP	SMILES
5.22^[a]	CCCC(=NOCCCON=C(CCC)c1ccc(C)c(C)n1)c1ccc(C)c(C)n1 (mixture of isomers) [Compound 260]
4.20^[a]	C=C(CON=C(C#N)c1cccc(C)n1)CON=C(C#N)c1ccc(C)c(C)n1 [compound 828]
2.55^[a]	CC(=NOC(=O)NCCCC(C)CNC(=O)ON=C(C)c1ccc(C)c(C)n1)c1ccc(C)c(C)n1 (stereo not shown) [compound 861]
5.04^[a]	CC(=NOC[Si](C)(CON=C(C)c1cc(C)cc(C)n1)C(C)C)c1cc(C)cc(C)n1 [Compound 836]
4.57^[a]	CC=Cc1cc(C)nc(C(C)=NOCC(C)CON=C(C)c2cc(C=CC)cc(C)n2)c1 (stereo not shown) [compound 866]
1.97^[a]	CC(=NOC(=O)NCCCCNC(=O)ON=C(C)c1cccc(C)n1)c1cccc(C)n1 [compound 864]
4.78^[a]	CC(=NOCC(C)(C)CON=C(C)c1ccc2c(n1)CCC2)c1ccc2c(n1)CCC2 [Compound 301]
3.22^[a]	C=C(CON=C(C)c1csc(C)n1)CON=C(C)c1csc(C)n1 [compound 522]
3.60^[a]	CC(=NOC(C)C(C)C(C)ON=C(C)c1cc(C)cc(C)n1)c1cc(C)cc(C)n1 (mixture of isomers) [Compound 790]
6.76^[a]	CC(=NOC[Si](C)(CON=C(C)c1ccc(C)c(C)n1)C(C)C)c1ccc(C)c(C)n1 [Compound 837]

Same assay, conditions: value marked [b]

logP	SMILES
4.85^[b]	C=C(CON=C(C)c1ccc2c(c1)CC(C)O2)CON=C(C)c1cccc(C)n1 (stereo not shown) [compound 468]
3.41^[b]	CC(=NOCC(C)CON=C(C)c1nc(C)c(C)c(C)n1)c1nc(C)c(C)c(C)n1 (stereo not shown) [Compound 266]
3.65^[b]	C=C(CON=C(C)c1cccc(C)n1)CON=C(c1ccccc1)c1cccc(C)n1 [compound 357]
5.04^[b]	CC(=NOC[Si](C)(CON=C(C)c1cc(C)cc(C)n1)C(C)C)c1cc(C)cc(C)n1 [Compound 836]
3.65^[b] (isomer A)	C=C(CON=C(C)c1cccc(C)n1)CON=C(CCC)c1ncccc1C (single isomer, unassigned) [compound 534]
3.11^[b] (isomer B)	C=C(CON=C(C)c1cccc(C)n1)CON=C(C)c1ncccc1C (single isomer, unassigned) [compound 478]
4.57^[b]	CC=Cc1cc(C)nc(C(C)=NOCC(C)CON=C(C)c2cc(C=CC)cc(C)n2)c1 (stereo not shown) [compound 866]
6.87^[b]	CC(=NOCC(C)(C)CON=C(C)c1cccc(C(C)C)n1)c1cccc(C)n1 [Compound 491]
4.63^[b]	CC(=NOCC(CON=C(C)c1cccc(C)n1)c1ccccc1)c1cccc(C)n1 (stereo not shown) [Compound 264]
2.28^[b]	CC(=NOCC1(CON=C(C)c2cccc(NCC3CC3)n2)CCC1)c1cccc(NCC2CC2)n1 [compound 850]
2.62^[b]	CC(=NOCCCCCCON=C(C)c1cccc(C)n1)c1ccncc1 [compound 454]
3.34^[b]	CC(=NOCCC(C)ON=C(C)c1cccc(C)n1)c1cccc(C)n1 (stereo not shown) [Compound 295]
4.82^[b]	CCCC(=NOCCCCON=C(C)c1cccc(C)n1)c1cccc(C)n1 [compound 330]
3.46^[b]	C=C(CON=C(C)c1cccc(C)n1)CON=C(C)c1cncc(C)n1 [compound 480]
2.37^[b] (isomer A)	C=C(CON=C(C)c1nc(C)ccc1C)CON=C(C)c1nc(C)ccc1C (single isomer, unassigned) [compound 307]
2.98^[b] (isomer )A	CCC(=NOCCCCON=C(C)c1cccc(C)n1)c1ncccc1C (single isomer, unassigned) [compound 529]
4.97^b] (isomer )A	CC(=NOCCCCCCON=C(Cc1ccccc1)c1ncccc1C)c1cccc(C)n1 (single isomer, unassigned) [compound 531]
3.99^[b]	CCC(=NOCC(C)CON=C(C)c1cccc(C)n1)c1ncccc1C (stereo not shown) [compound 425]
3.77^[b]	CC(=NOCC1(CON=C(C)c2nc(C)ccc2C)CCC1)c1nc(C)ccc1C (single isomer, unassigned) [compound 761]
3.22^[b]	C=C(CON=C(C)c1csc(C)n1)CON=C(C)c1csc(C)n1 [compound 522]
4.44^[b]	CC(=NOC(C)C(C)C(C)ON=C(C)c1cc(C)cc(C)n1)c1cc(C)cc(C)n1 (mixture of isomers) [Compound 790]
6.76^[b]	CC(=NOC[Si](C)(CON=C(C)c1ccc(C)c(C)n1)C(C)C)c1ccc(C)c(C)n1 [Compound 837]
4.91^[b] (isomer B)	C=C(CON=C(C)c1cccc(C)n1)CON=C(C)c1ccc(Cl)s1 (single isomer, unassigned) [compound 473]
3.11^[b]	CC(=NOCCCCON=C(C)c1cccc(C)n1)c1ccccn1 [Compound 376]
2.15^[b]	C=C(CON=C(C)c1cccnc1)CON=C(C)c1cccc(C)n1 [compound 407]

Same assay, conditions: value marked [c]

logP	SMILES
7.36^[c]	CC(=NOC[Si](C)(CON=C(C)c1cc(C)cc(C)n1)C(C)C)c1cc(C)cc(C)n1 [Compound 836]
5.84^[c]	CC(=NOCC1(CON=C(C)c2nc(C)ccc2C)CCC1)c1nc(C)ccc1C (single isomer, unassigned) [compound 761]
7.36^[c]	CC(=NOC[Si](C)(CON=C(C)c1ccc(C)c(C)n1)C(C)C)c1ccc(C)c(C)n1 [Compound 837]
